The source made the active and inactive calls. The rule behind the calls is not given here.
Tests used:
[1] = target: Serine/threonine-protein kinase SBK1 (Homo sapiens) (UniProt Q52WX2); experiment: activity of SBK1(h) at 1.0 µM in the Eurofins Kinase panel; conditions: Compound concentration 1.0 uM
[2] = target: Mitogen-activated protein kinase kinase kinase 11 (Homo sapiens) (UniProt Q16584); experiment: activity of MLK3(h) at 1.0 µM in the Eurofins Kinase panel; conditions: Compound concentration 1.0 uM
[3] = target: Dual specificity mitogen-activated protein kinase kinase 3 (Homo sapiens) (UniProt P46734); experiment: activity of MKK3(h) at 1.0 µM in the Eurofins Kinase panel; conditions: Compound concentration 1.0 uM
[4] = target: Serine/threonine-protein kinase Chk2 (Homo sapiens) (UniProt O96017); experiment: activity of CHK2(h) at 1.0 µM in the Eurofins Kinase panel; conditions: Compound concentration 1.0 uM
[5] = target: Mitogen-activated protein kinase kinase kinase kinase 4 (Homo sapiens) (UniProt O95819); experiment: activity of MAP4K4(h) at 1.0 µM in the Eurofins Kinase panel; conditions: Compound concentration 1.0 uM
[6] = target: Citron Rho-interacting kinase (Homo sapiens, UniProt O14578); experiment: NanoLuc NanoBRET (CITKD); conditions: read-out: Kd
[7] = target: Beta-adrenergic receptor kinase 1 (Homo sapiens) (UniProt P25098); experiment: activity of GRK2(h) at 1.0 µM in the Eurofins Kinase panel; conditions: Compound concentration 1.0 uM
[8] = target: Protein kinase C epsilon type (Homo sapiens) (UniProt Q02156); experiment: activity of PKCepsilon(h) at 1.0 µM in the Eurofins Kinase panel; conditions: Compound concentration 1.0 uM
[9] = target: Serine/threonine-protein kinase NLK (Homo sapiens) (UniProt Q9UBE8); experiment: activity of NLK(h) at 1.0 µM in the Eurofins Kinase panel; conditions: Compound concentration 1.0 uM
[10] = target: Cyclin-dependent kinase 13/Cyclin-K (Homo sapiens) (UniProt Q14004+O75909); experiment: activity of CDK13/cyclinK(h) at 1.0 µM in the Eurofins Kinase panel; format: protein-complex assay; conditions: Compound concentration 1.0 uM
[11] = target: Insulin-like growth factor 1 receptor (Homo sapiens) (UniProt P08069); experiment: activity of IGF-1R(h), activated at 1.0 µM in the Eurofins Kinase panel; conditions: Compound concentration 1.0 uM
[12] = target: Cyclin-dependent kinase-like 3 (Homo sapiens) (UniProt Q8IVW4); experiment: activity of CDKL3(h) at 1.0 µM in the Eurofins Kinase panel; conditions: Compound concentration 1.0 uM
[13] = target: AP2-associated protein kinase 1 (Homo sapiens, UniProt Q2M2I8); experiment: Promega NanoBRET (AAK1)
[14] = target: Serine/threonine-protein kinase DCLK3 (Homo sapiens) (UniProt Q9C098); experiment: activity of DCAMKL3(h) at 1.0 µM in the Eurofins Kinase panel; conditions: Compound concentration 1.0 uM
[15] = target: Serine/threonine-protein kinase PLK4 (Homo sapiens) (UniProt O00444); experiment: activity of Plk4(h) at 1.0 µM in the Eurofins Kinase panel; conditions: Compound concentration 1.0 uM
[16] = target: Activin receptor type-1B (Homo sapiens) (UniProt P36896); experiment: activity of ALK4(h) at 1.0 µM in the Eurofins Kinase panel; conditions: Compound concentration 1.0 uM
[17] = target: Ribosomal protein S6 kinase alpha-6 (Homo sapiens) (UniProt Q9UK32); experiment: activity of Rsk4(h) at 1.0 µM in the Eurofins Kinase panel; conditions: Compound concentration 1.0 uM
[18] = target: Cytoplasmic tyrosine-protein kinase BMX (Homo sapiens) (UniProt P51813); experiment: activity of Bmx(h) at 1.0 µM in the Eurofins Kinase panel; conditions: Compound concentration 1.0 uM
[19] = target: Fibroblast growth factor receptor 3 (Homo sapiens) (UniProt P22607); experiment: activity of FGFR3(h) at 1.0 µM in the Eurofins Kinase panel; conditions: Compound concentration 1.0 uM
[20] = target: Serine/threonine-protein kinase VRK2 (Homo sapiens) (UniProt Q86Y07); experiment: activity of VRK2(h) at 1.0 µM in the Eurofins Kinase panel; conditions: Compound concentration 1.0 uM
[21] = target: Serine/threonine-protein kinase ULK2 (Homo sapiens) (UniProt Q8IYT8); experiment: activity of ULK2(h) at 1.0 µM in the Eurofins Kinase panel; conditions: Compound concentration 1.0 uM
[22] = target: Casein kinase I isoform gamma-2 (Homo sapiens) (UniProt P78368); experiment: activity of CK1gamma2(h) at 1.0 µM in the Eurofins Kinase panel; conditions: Compound concentration 1.0 uM
[23] = target: Mitogen-activated protein kinase 12 (Homo sapiens) (UniProt P53778); experiment: activity of SAPK3(h) at 1.0 µM in the Eurofins Kinase panel; conditions: Compound concentration 1.0 uM
[24] = target: Serine/threonine-protein kinase PLK3 (Homo sapiens) (UniProt Q9H4B4); experiment: activity of Plk3(h) at 1.0 µM in the Eurofins Kinase panel; conditions: Compound concentration 1.0 uM
[25] = target: Dual specificity protein kinase CLK2 (Homo sapiens) (UniProt P49760); experiment: activity of CLK2(h) at 1.0 µM in the Eurofins Kinase panel; conditions: Compound concentration 1.0 uM
[26] = target: cAMP-dependent protein kinase catalytic subunit PRKX (Homo sapiens) (UniProt P51817); experiment: activity of PrKX(h) at 1.0 µM in the Eurofins Kinase panel; conditions: Compound concentration 1.0 uM
[27] = target: Serine/threonine-protein kinase A-Raf (Homo sapiens) (UniProt P10398); experiment: activity of A-Raf(h) at 1.0 µM in the Eurofins Kinase panel; conditions: Compound concentration 1.0 uM
[28] = target: Vascular endothelial growth factor receptor 1 (Homo sapiens) (UniProt P17948); experiment: activity of Flt1(h) at 1.0 µM in the Eurofins Kinase panel; conditions: Compound concentration 1.0 uM
[29] = target: Phosphatidylinositol 4-phosphate 3-kinase C2 domain-containing subunit alpha (Homo sapiens) (UniProt O00443); experiment: activity of PI3KC2alpha(h) at 1.0 µM in the Eurofins Kinase panel; conditions: Compound concentration 1.0 uM
[30] = target: Mitogen-activated protein kinase kinase kinase 20 (Homo sapiens) (UniProt Q9NYL2); experiment: activity of ZAK(h) at 1.0 µM in the Eurofins Kinase panel; conditions: Compound concentration 1.0 uM
[31] = target: Mitogen-activated protein kinase kinase kinase 9 (Homo sapiens) (UniProt P80192); experiment: activity of MLK1(h) at 1.0 µM in the Eurofins Kinase panel; conditions: Compound concentration 1.0 uM
[32] = target: cGMP-dependent protein kinase 1 (Homo sapiens) (UniProt Q13976); experiment: activity of PKG1beta(h) at 1.0 µM in the Eurofins Kinase panel; conditions: Compound concentration 1.0 uM
[33] = target: Death-associated protein kinase 2 (Homo sapiens) (UniProt Q9UIK4); experiment: activity of DAPK2(h) at 1.0 µM in the Eurofins Kinase panel; conditions: Compound concentration 1.0 uM
[34] = target: Cyclin-dependent kinase 1/cyclin B (Homo sapiens) (UniProt P06493+P14635+Q8WWL7+O95067); experiment: activity of CDK1/cyclinB(h) at 1.0 µM in the Eurofins Kinase panel; format: protein-complex assay; conditions: Compound concentration 1.0 uM
[35] = target: Myosin-IIIb (Homo sapiens) (UniProt Q8WXR4); experiment: activity of MYO3B(h) at 1.0 µM in the Eurofins Kinase panel; conditions: Compound concentration 1.0 uM
[36] = target: Ephrin type-A receptor 5 (Homo sapiens) (UniProt P54756); experiment: activity of EphA5(h) at 1.0 µM in the Eurofins Kinase panel; conditions: Compound concentration 1.0 uM
[37] = target: Testis-specific serine/threonine-protein kinase 4 (Homo sapiens) (UniProt Q6SA08); experiment: activity of TSSK4(h) at 1.0 µM in the Eurofins Kinase panel; conditions: Compound concentration 1.0 uM
[38] = target: Protein-tyrosine kinase 6 (Homo sapiens) (UniProt Q13882); experiment: activity of BRK(h) at 1.0 µM in the Eurofins Kinase panel; conditions: Compound concentration 1.0 uM
[39] = target: Serine/threonine-protein kinase 26 (Homo sapiens) (UniProt Q9P289); experiment: activity of MST4(h) at 1.0 µM in the Eurofins Kinase panel; conditions: Compound concentration 1.0 uM

Mitogen-activated protein kinase kinase kinase 9 (Homo sapiens), sequence (P80192 whole entry, looked up): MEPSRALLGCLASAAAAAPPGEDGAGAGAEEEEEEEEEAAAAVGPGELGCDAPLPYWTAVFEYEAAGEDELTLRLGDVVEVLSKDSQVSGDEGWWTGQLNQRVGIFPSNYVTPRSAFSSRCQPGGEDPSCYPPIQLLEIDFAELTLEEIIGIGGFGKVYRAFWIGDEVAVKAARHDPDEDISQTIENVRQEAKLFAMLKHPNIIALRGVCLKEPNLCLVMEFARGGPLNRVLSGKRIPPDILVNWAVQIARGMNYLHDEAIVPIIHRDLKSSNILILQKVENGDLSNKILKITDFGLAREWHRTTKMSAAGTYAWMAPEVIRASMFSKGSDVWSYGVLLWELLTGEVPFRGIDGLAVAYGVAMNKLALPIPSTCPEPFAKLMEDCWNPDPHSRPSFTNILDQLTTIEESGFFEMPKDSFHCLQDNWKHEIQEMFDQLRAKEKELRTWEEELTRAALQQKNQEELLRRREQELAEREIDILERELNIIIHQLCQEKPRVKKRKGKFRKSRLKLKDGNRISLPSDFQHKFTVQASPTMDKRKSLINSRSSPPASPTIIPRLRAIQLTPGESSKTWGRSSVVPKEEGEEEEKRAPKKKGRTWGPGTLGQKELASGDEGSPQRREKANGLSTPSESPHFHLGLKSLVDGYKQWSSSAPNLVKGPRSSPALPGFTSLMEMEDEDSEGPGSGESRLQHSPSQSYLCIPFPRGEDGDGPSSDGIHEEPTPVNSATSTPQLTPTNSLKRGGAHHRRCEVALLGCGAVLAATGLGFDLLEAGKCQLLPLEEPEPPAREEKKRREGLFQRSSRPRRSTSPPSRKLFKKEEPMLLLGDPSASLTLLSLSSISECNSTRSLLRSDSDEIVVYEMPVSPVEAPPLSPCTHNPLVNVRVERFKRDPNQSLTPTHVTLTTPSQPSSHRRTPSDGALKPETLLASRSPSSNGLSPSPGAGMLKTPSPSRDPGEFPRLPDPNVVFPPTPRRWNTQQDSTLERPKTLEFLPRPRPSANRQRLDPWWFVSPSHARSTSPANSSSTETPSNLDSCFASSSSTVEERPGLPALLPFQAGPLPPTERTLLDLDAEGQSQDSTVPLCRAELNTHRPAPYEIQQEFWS
Mitogen-activated protein kinase 12 (Homo sapiens), sequence (P53778 whole entry): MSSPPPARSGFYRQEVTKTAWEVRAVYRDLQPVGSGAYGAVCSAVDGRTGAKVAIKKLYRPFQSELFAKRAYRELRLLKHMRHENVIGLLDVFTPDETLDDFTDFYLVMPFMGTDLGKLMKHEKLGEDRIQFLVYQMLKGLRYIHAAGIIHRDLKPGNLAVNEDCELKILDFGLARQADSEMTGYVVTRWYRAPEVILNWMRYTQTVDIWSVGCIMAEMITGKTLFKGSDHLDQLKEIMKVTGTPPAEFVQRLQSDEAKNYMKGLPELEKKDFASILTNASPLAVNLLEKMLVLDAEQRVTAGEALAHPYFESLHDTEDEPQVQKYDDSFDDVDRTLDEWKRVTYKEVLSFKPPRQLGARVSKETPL
Dual specificity mitogen-activated protein kinase kinase 3 (Homo sapiens), sequence (P46734 whole entry): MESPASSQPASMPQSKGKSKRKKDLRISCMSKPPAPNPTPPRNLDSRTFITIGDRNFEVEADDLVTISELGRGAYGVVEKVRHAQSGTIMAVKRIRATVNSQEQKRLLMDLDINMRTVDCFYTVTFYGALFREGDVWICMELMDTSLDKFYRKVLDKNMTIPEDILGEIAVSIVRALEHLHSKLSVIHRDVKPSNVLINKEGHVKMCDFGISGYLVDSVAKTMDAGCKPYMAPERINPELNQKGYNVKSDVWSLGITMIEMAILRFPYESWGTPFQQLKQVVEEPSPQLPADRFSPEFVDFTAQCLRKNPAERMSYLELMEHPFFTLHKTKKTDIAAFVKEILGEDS
Ephrin type-A receptor 5 (Homo sapiens), sequence (P54756 whole entry): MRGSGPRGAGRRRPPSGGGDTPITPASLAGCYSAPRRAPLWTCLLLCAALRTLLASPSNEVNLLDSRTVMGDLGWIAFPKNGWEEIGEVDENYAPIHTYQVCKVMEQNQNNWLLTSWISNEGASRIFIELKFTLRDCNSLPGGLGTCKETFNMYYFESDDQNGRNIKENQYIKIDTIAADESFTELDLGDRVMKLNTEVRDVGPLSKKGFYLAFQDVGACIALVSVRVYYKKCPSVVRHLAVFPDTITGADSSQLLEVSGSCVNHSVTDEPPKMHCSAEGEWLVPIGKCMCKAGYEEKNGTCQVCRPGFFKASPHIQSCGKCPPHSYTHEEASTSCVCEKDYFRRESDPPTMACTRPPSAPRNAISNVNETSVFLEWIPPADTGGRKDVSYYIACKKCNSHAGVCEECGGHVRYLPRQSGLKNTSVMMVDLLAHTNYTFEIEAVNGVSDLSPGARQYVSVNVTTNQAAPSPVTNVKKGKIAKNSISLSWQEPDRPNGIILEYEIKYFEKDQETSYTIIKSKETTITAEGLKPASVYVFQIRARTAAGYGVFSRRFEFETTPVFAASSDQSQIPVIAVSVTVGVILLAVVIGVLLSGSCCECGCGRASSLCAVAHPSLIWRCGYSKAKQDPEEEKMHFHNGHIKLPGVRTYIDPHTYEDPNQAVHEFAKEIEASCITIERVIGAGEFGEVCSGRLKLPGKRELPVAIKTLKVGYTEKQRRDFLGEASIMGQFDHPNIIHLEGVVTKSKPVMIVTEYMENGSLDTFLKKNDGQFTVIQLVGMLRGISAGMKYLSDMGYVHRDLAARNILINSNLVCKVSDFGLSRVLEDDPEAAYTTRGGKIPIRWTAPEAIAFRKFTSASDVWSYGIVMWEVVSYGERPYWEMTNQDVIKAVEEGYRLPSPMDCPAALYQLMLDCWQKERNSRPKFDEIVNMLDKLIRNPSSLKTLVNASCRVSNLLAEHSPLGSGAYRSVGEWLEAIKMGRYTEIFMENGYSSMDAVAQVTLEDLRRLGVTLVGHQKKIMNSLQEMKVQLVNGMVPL
Serine/threonine-protein kinase A-Raf (Homo sapiens), sequence (P10398 whole entry): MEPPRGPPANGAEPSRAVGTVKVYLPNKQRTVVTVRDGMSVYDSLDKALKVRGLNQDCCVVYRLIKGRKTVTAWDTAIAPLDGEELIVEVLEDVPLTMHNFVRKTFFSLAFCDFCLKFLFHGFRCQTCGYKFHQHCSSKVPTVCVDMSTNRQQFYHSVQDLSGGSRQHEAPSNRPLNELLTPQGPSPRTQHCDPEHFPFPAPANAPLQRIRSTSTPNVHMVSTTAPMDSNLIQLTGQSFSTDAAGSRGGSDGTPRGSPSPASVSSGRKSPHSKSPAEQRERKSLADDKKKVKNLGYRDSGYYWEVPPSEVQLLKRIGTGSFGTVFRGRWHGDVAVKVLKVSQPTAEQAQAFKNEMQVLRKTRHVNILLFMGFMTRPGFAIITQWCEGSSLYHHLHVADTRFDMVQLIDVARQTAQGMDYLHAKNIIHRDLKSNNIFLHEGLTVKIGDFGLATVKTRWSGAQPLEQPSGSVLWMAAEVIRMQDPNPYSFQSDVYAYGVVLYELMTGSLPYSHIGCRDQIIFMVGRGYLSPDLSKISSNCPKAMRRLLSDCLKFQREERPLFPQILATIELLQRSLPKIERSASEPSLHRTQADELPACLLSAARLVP
Activin receptor type-1B (Homo sapiens), sequence (P36896 whole entry): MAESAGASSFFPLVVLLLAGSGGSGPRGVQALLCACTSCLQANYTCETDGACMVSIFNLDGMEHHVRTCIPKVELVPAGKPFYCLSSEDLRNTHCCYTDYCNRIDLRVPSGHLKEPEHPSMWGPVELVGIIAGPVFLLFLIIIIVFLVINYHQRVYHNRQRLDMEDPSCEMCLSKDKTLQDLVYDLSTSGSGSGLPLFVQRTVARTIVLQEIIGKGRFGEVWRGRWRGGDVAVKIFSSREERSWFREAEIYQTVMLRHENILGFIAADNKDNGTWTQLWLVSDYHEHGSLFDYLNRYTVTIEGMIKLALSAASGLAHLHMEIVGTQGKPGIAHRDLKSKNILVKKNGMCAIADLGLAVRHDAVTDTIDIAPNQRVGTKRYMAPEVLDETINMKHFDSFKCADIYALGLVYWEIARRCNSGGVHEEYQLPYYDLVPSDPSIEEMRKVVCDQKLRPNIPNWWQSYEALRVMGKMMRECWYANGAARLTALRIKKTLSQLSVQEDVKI
cGMP-dependent protein kinase 1 (Homo sapiens), sequence (Q13976 whole entry): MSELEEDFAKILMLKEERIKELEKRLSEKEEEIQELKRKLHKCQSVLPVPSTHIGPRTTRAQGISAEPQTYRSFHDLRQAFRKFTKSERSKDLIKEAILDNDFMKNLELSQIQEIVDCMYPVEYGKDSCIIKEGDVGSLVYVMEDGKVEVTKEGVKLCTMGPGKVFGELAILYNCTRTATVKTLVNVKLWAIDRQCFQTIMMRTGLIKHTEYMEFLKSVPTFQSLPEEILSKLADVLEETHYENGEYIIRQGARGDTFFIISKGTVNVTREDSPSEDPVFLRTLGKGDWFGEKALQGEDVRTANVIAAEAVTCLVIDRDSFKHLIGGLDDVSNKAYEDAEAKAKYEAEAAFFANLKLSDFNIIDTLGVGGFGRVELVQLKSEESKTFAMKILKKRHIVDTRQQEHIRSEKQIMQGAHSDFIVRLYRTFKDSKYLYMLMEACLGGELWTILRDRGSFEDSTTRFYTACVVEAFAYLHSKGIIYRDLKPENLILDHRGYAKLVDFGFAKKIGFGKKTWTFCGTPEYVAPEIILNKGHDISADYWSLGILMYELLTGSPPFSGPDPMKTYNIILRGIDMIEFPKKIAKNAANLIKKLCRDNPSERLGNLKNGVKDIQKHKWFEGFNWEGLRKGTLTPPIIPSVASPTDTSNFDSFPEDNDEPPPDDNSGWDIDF
cAMP-dependent protein kinase catalytic subunit PRKX (Homo sapiens), sequence (P51817 whole entry): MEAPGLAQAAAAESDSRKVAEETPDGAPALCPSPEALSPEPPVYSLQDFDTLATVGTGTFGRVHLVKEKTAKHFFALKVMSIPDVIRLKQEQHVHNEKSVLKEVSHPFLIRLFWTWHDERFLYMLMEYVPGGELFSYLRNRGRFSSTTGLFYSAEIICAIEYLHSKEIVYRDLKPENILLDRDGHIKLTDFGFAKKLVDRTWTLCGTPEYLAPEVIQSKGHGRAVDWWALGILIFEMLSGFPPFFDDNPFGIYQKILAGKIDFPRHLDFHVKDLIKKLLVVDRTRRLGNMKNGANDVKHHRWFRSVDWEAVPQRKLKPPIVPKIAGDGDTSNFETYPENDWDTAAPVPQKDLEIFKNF

SMILES: Cc1cc2c(-c3ccc(NC(=O)[C@H](N)CC(C)(C)C)cc3C)ccnc2[nH]1
- activity [1]: 97%
- activity [2]: 91%
- activity [3]: 97%
- activity [4]: 95%
- activity [5]: 101%
- Kd [6]: 0.0003 µM (active)
- activity [7]: 95%
- activity [8]: 97%
- activity [9]: 98%
- activity [10]: 99%
- activity [11]: 93%
- activity [12]: 79%
- IC50 [13]: 6.2 µM (not active)
- activity [14]: 86%
- activity [15]: 92%
- activity [16]: 94%
- activity [17]: 101%
- activity [18]: 97%
- activity [19]: 86%
- activity [20]: 100%
- activity [21]: 98%
- activity [22]: 97%
- activity [23]: 113%
- activity [24]: 100%
- activity [25]: 106%
- activity [26]: 101%
- activity [27]: 97%
- activity [28]: 125%
- activity [29]: 102%
- activity [30]: 83%
- activity [31]: 103%
- activity [32]: 92%
- activity [33]: 109%
- activity [34]: 94%
- activity [35]: 79%
- activity [36]: 89%
- activity [37]: 117%
- activity [38]: 83%
- activity [39]: 106%

Reference: ChEMBL document CHEMBL5723584 (2023)
